Measurements taken from patent publication US20080269106A1, “Methods and Compositions for Diagnosis and Treatment of Disorders Involving Macrophages” (priority 2005, published 2008).
d = 2'-deoxy (DNA); r = 2'-OH (RNA)

Tests used:
[1] = system: RARα fusion proteins (AR-N′/RAR, ER-N′/RAR); assay: RARα-dependent reporter with AR-N'/RAR and ER-N'/RAR fusion receptors, single cell microinjection; format: cell-based
BMP7 = assay: Semi-quantitative RT-PCR of BMP7 in MCF-7 breast cancer cells; format: cell-based; conditions: MCF-7 cells
Description: Semi-quantitative RT-PCR was carried out as described (Zhu et al, 2004). Primers were: […]
(§1) Actin was used as the loading control. […] A BMP7 promoter-controlled LacZ reporter and an ERα expression plasmid were injected into cells. […] Wild-type ERα and Erα (E203A/G204A) were cotransfected with the reporter in 293 cells. […] Primer pair #1 flanks two putative ERE half-sites, and primer pair #2 (control) flanks a region ˜3 kb upstream of #1.
This is particularly relevant in light of the fact that a key aspect of reproductive regulation, blastocyst implantation, involves a local induction of BMP7 in response to inflammatory signals (Monroe et al., 2000; Paria et al., 2001).

androgen receptor (AR) [2] = molecular target: T1, androgen receptor (AR) (Homo sapiens, UniProt P10275); assay: PSA promoter reporter, single cell nuclear microinjection in RWPE1 cells; format: cell-based; conditions: for effect on IL-1β-mediated activator function of bicalutamide: 14mer peptide microinjected, PSA promoter- or ARE-dependent reporters
T1 construct: endogenous in cells; host or cells: RWPE1 prostate cells
T1 sequence (P10275 1-920): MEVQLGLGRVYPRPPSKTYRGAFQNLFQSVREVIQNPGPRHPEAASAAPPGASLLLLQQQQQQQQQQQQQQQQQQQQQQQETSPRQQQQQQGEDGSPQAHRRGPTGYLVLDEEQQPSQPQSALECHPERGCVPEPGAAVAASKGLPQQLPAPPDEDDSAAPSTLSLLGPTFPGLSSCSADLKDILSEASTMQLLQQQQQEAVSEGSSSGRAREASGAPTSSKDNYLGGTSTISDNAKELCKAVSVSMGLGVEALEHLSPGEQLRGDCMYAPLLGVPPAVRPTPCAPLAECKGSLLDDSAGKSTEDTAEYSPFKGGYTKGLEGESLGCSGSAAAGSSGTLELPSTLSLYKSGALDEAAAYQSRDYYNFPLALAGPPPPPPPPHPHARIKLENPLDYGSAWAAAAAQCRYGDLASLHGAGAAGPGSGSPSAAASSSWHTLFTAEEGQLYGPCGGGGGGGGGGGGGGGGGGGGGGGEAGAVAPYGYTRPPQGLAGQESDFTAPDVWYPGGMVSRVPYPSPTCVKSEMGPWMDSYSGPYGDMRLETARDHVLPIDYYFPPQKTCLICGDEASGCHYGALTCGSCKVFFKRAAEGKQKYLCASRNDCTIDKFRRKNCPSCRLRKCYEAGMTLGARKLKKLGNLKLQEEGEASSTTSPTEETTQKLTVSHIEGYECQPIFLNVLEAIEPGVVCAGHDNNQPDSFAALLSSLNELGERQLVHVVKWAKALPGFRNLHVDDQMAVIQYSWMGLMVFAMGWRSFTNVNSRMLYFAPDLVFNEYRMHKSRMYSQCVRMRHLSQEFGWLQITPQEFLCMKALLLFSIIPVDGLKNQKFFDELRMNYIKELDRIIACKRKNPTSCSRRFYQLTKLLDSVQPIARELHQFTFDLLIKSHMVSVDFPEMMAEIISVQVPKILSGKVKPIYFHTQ
Source text: One representative of three independent experiments is shown.

ERα [3] = molecular target: T2, ERα (Homo sapiens, UniProt P03372); assay: Luciferase reporter driven by human BMP7 proximal promoter in 293 cells; format: cell-based; set-up: expressed in transfected cells; host or cells: 293 cells; conditions: combination of E2 and IL-1β
T2 sequence (P03372 1-595): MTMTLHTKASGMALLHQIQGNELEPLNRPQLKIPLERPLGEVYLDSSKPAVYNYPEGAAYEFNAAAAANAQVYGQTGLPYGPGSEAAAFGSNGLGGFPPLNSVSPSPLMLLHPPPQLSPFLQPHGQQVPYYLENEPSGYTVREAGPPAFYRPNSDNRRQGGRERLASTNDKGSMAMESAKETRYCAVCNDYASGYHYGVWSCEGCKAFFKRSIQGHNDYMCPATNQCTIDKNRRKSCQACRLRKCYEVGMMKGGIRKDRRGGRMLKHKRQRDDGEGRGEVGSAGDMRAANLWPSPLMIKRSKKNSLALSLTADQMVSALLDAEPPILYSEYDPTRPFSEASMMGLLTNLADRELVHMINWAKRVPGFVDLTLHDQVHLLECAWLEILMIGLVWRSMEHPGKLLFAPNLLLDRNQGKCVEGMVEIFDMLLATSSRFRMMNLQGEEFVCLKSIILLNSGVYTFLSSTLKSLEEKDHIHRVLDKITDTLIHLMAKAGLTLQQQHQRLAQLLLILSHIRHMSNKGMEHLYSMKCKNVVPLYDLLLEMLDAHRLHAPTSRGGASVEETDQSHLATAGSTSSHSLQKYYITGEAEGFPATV
Description: as §1

ERα [4] = molecular target: T2, ERα; assay: BMP7 promoter-controlled LacZ reporter, single cell nuclear microinjection in Rat-1 cells; format: cell-based; set-up: expressed in transfected cells; host or cells: Rat-1 cells; conditions: added to E2
Description: as §1

androgen receptor (AR) [5] = molecular target: T1, androgen receptor (AR); assay: ARE-dependent lacZ reporter, single cell nuclear microinjection; format: cell-based; conditions: presence of bicalutamide
Description: Specific IgGs against AR, N-CoR, TAB2, HDAC3, HDAC2, HDAC1, Sin3, or MBD3 were used to immunoprecipitate protein-bound DNA fragments. […] The bound material was eluted and divided into several aliquots, and re-immunoprecipitated with antibodies as shown (2nd IP).
Cells were stained with antibodies directed against the N-CoR, and the fluorescence-conjugated secondary antibody was visualized using deconvoluting microscopy. Merged images with nuclear staining with DAPI are shown. […] 5 ng/ml of leptomycin B (LMB), a nuclear export inhibitor, was also used for 30 min followed by treatment with 10 ng/ml of IL-1β.

[6] = molecular target: estrogen receptor-α (ERα) (Homo sapiens, UniProt P03372); conditions: cells null for either MEKK1 or TAB2
Source text: Wild-type MEKK1, C478A MEKK1 (mutant of ubiquitin ligase activity), or D1369A MEKK1 (mutant of kinase activity) was used to rescue IL-1β-dependent activation of the pS2 promoter by 4-OHT in MEFs from MEKK−/− mice.

endogenous TAB2 = molecular target: T3, endogenous TAB2 (UniProt Q9NYJ8 1-693); assay: 2-step ChIP co-occupancy
T3 construct: Endogenous protein, detected with anti-TAB2 IgG
T3 sequence (looked up): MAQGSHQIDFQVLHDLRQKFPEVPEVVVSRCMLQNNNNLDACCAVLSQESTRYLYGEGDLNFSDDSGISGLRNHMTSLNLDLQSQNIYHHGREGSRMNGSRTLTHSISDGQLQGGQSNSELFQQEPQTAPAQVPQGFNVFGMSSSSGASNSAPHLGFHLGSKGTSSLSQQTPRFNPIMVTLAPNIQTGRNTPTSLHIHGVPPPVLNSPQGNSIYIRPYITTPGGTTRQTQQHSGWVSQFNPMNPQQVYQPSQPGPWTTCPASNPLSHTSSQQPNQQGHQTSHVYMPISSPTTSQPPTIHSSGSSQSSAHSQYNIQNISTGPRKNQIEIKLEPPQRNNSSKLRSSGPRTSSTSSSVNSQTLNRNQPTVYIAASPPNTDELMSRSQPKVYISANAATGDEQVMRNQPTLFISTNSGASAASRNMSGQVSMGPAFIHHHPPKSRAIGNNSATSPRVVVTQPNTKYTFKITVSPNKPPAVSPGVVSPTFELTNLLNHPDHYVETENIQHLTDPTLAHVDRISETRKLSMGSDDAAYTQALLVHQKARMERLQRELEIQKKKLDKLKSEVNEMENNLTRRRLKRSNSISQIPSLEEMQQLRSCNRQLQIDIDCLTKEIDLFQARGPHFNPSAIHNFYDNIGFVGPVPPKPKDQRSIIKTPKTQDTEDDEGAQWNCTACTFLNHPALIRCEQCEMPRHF

C[C@]12CC[C@@H]3c4ccc(O)cc4CC[C@H]3[C@@H]1CC[C@@H]2O [E2, 17-β-estradiol]
activation of chimeric RARα [1]: neither E2 nor DHT exerted activation effects
BMP7 transcript levels (BMP7): decreased levels of BMP7 transcripts

DILSEASTMQLLQQ [14mer synthetic peptide encompassing the AR LX7LL motif]
effect on IL-1β-mediated activator function of bicalutamide (androgen receptor (AR) [2]): specifically blocked
effect on macrophage-induced agonistic switch of bicalutamide (androgen receptor (AR) [2]; peptide microinjected into RWPE1 cells pre-treated with TNFα, THP-1 macrophages, PSA promoter-dependent reporter): blocked

IL-1β: human IL-1β from Calbiochem, pro-inflammatory cytokine
effect on E2 inhibition of BMP7 transcripts (BMP7; added to E2): blocked this inhibition
hBMP7 proximal promoter reporter activity, combination with E2 (ERα [3]): restored the reporter activity to the baseline
expression of hBMP-7 promoter-controlled reporter on addition to E2 (ERα [4]): actively increased expression over the baseline

C[C@]12CCC(=O)C[C@@H]1CC[C@@H]1[C@@H]2CC[C@]2(C)[C@@H](O)CC[C@@H]12 [DHT, Dihydrotestosterone]
activation of chimeric RARα [1]: neither E2 nor DHT exerted activation effects

5′-GCACCGAAGUAUUGUCCAAdTdT-3′ (sense GCACCGAAGUAUUGUCCAATT; antisense UUGGACAAUACUUCGGUGCTT; siRNA; sugars from the 5' end r19 d2, backbone not given here) [N-CoR siRNA]
effect on bicalutamide-dependent repression of ARE reporter (androgen receptor (AR) [5]): switch from repression to activation

DIASEASTMQAAQQ [mutated AX7AA (SEQ ID NO:26) sequence]
effect on IL-1β-mediated activator function of bicalutamide (androgen receptor (AR) [2]): failed to inhibit induction

4-OH tamoxifen [4-OHT]
IL-1β-dependent conversion to activator of ERα [6]: failed to occur

B1: wild-type RARα (receptor, UniProt P10276 1-462, looked up)
chain: MASNSSSCPTPGGGHLNGYPVPPYAFFFPPMLGGLSPPGALTTLQHQLPVSGYSTPSPATIETQSSSSEEIVPSPPSPPPLPRIYKPCFVCQDKSSGYHYGVSACEGCKGFFRRSIQKNMVYTCHRDKNCIINKVTRNRCQYCRLQKCFEVGMSKESVRNDRNKKKKEVPKPECSESYTLTPEVGELIEKVRKAHQETFPALCQLGKYTTNNSSEQRVSLDIDLWDKFSELSTKCIIKTVEFAKQLPGFTTLTIADQITLLKAACLDILILRICTRYTPEQDTMTFSDGLTLNRTQMHNAGFGPLTDLVFAFANQLLPLEMDDAETGLLSAICLICGDRQDLEQPDRVDMLQEPLLEALKVYVRKRRPSRPHMFPKMLMKITDLRSISAKGAERVITLKMEIPGSMPPLIQEMLENSEGLDTLSGQPGGGGRDGGGLAPPPGSCSPSLSPSSNRSSPATHSP
notes: also called retinoic acid receptor
binding result (endogenous TAB2): no binding
